# ChEMBL document CHEMBL1201862, “PubChem BioAssay data set” (2004)
# Active and inactive are the calls of the source.
# Assays:
# [1] = viability of HCT116 lacking mutant beta-catenin – cell-based, human colon tumor, dose response (AID 1045); assay type: functional;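 further: HCT116 colon tumor cells with beta catenin knocked out; cells exposed to compound for 60 hours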
# [2] = viability of PTEN-deleted HCT116 cells – cell-based, HCT116 PTEN knockout, dose response (AID 1047); assay type: functional;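 further: HCT116 colon tumor cells with PTEN knocked out; cells exposed to compound for 60 hours before readout; potency for loss of cell viability measured by luminescence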
# [3] = Trypanosoma cruzi growth suppression in host cells – NIH3T3 host cells, beta-gal luminescence, confirmation (AID 2044); assay type: functional, cell-based;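 further: intracellular parasites grown in NIH/3T3 mouse fibroblasts as host cells; luminescent beta-galactosidase reporter signal from transgenic T. cruzi replicating inside host cells; inhibitors lower the luminescence signal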
# [4] = molecular target: T1, Zinc finger protein mex-5 (Caenorhabditis elegans, UniProt Q9XUB2); assay: potency of MEX-5 RNA-binding blockers – biochemical, C. elegans, fluorescence polarization, dose response (AID 1960)
# T1 sequence (Q9XUB2 whole entry): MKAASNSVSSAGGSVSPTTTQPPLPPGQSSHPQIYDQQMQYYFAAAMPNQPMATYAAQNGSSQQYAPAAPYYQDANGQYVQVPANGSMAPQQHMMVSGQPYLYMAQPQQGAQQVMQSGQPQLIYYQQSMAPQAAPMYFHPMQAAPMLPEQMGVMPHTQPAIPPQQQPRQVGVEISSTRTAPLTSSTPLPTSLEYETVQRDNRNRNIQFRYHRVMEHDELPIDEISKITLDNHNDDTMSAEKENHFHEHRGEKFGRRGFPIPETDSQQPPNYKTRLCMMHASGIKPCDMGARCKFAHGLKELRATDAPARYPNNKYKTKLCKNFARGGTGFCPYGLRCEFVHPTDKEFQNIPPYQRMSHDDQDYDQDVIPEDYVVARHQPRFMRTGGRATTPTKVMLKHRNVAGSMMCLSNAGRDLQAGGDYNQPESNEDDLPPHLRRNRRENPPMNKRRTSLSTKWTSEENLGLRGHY
# [5] = NIH3T3 cell viability loss – ATP luminescence, mouse fibroblasts, counter-screen, dose response (AID 2010); assay type: functional, cell-based;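 further: cells exposed to compound for about 90 hours before reading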
# [6] = molecular target: T2, RNA-binding protein pos-1 (Caenorhabditis elegans, UniProt G5EF15); assay: disruptors of C. elegans POS-1 RNA interaction – biochemical, fluorescence polarization, dose response (AID 1964);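 further: purified POS-1 fused to maltose binding protein made in E. coli; potency of compounds blocking POS-1 binding to fluorescent RNA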
# T2 sequence (G5EF15 whole entry): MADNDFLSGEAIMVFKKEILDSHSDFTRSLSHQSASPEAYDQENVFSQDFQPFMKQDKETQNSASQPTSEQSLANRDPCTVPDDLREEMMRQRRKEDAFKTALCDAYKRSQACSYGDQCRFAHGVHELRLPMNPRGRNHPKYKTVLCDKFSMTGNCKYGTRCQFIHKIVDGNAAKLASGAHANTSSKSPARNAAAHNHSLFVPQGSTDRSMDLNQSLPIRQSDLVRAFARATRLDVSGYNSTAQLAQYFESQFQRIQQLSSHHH
# [7] = molecular target: T3, Replicative DNA helicase DnaB (Mycobacterium tuberculosis, UniProt P9WMR3); assay: DnaB intein splicing inhibitors, dose response, biochemical, cell-free fluorescence (AID 449749); assay type: functional
# T3 sequence (P9WMR3 whole entry): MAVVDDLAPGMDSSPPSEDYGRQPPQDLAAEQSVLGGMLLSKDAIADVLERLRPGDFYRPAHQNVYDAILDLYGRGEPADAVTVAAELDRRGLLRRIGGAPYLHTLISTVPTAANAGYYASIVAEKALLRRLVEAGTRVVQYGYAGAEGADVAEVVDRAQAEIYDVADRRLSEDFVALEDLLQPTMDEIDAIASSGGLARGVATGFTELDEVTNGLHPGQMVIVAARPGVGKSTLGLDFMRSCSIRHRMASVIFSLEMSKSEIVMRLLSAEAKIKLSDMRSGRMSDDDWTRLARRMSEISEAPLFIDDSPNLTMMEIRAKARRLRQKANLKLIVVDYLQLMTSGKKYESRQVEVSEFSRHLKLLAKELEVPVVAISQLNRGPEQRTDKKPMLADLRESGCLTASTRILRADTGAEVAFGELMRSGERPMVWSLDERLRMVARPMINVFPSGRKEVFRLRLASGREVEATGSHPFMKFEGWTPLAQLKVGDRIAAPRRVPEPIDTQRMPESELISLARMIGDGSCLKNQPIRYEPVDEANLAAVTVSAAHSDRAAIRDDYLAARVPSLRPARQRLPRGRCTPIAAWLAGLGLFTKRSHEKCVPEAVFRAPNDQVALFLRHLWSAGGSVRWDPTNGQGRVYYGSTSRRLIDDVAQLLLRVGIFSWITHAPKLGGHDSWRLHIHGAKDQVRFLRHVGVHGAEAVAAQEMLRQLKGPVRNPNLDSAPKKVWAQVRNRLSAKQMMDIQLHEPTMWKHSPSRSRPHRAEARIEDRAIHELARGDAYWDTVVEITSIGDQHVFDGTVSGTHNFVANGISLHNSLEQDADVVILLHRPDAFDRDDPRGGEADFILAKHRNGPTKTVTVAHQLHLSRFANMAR
# Protein RecA = molecular target: T4, Protein RecA (Mycobacterium tuberculosis, UniProt P9WHJ3); assay: Fluorescence Cell-Free Homogeneous Dose Retest to Identify Inhibitors of RecA-Intein Splicing Activity. [Related pubchem assays (depositor defined):AID2097, AID2223, AID489010, AID492950]; assay type: functional
# T4 sequence (P9WHJ3 whole entry): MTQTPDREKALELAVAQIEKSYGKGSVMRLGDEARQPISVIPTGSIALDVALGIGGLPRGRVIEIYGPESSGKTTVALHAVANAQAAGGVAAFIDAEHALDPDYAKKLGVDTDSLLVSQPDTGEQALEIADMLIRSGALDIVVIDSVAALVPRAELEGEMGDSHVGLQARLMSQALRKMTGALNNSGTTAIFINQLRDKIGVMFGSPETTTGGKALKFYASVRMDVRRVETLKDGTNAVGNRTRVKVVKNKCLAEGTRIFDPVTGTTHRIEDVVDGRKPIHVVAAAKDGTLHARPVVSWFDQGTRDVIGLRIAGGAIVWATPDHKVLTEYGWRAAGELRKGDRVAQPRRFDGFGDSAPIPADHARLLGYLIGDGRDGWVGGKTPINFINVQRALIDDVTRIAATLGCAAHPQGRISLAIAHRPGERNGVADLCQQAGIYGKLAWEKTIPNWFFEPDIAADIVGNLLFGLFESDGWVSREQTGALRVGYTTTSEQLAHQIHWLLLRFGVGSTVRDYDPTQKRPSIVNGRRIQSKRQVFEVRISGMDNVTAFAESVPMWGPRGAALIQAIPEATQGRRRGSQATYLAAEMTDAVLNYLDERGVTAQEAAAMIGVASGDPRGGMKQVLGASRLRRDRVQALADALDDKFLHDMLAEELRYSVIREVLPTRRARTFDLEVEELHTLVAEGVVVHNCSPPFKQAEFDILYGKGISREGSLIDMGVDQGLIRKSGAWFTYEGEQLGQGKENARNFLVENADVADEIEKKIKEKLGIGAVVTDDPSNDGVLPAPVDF
# Streptococcus = assay: GAS UMAA2166 growth inhibition – luminescence, BacTiterGlo, counter-screen for streptokinase expression inhibitor project, dose response (AID 1915); assay type: functional, organism-based;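 further: potency for reduction of bacterial viability or growth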
# [8] = system: Streptococcus sp. 'group A'; assay: Streptococcus pyogenes SK(-)GAS viability under kanamycin – luminescence, BacTiterGlo, confirmation, counter-screen for streptokinase expression inhibitor project, dose response (AID 1900); assay type: functional, organism-based
# [9] = alpha-synuclein stem-loop luciferase translation blockers – H4 neuroglioma cells, luminescence, confirmation (AID 1988); assay type: functional, cell-based
# INS1 = assay: INS-1E survival protection against cytokine death – cell-based, luminescence, retest, dose response (AID 449756); assay type: functional; conditions: Rattus norvegicus;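 further: cell death triggered by IL-1 beta plus TNF-alpha plus IFN-gamma mixture; protective hits raise ATP signal compared with cytokine alone wells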
# [10] = Luminescence Cell-Based Dose Response HTS to Identify Inhibitors of 5'UTR Stem-Loop Driven Prion Protein mRNA Translation in H4 Neuroglioblastoma Cells. [Related pubchem assays: 1827 (Project Summary), 1813 (Primary HTS)]; assay type: functional
# Streptokinase A = molecular target: T5, Streptokinase A (Streptococcus pyogenes serotype M1, UniProt P10520); assay: viability-normalized secreted streptokinase activity reduction – plasminogen activation absorbance, OD405, dose response (AID 1914); assay type: functional, Streptococcus pyogenes M1 GAS;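 further: secreted streptokinase activity via plasminogen activation per viability signal from cell pellet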
# T5 sequence (P10520 whole entry): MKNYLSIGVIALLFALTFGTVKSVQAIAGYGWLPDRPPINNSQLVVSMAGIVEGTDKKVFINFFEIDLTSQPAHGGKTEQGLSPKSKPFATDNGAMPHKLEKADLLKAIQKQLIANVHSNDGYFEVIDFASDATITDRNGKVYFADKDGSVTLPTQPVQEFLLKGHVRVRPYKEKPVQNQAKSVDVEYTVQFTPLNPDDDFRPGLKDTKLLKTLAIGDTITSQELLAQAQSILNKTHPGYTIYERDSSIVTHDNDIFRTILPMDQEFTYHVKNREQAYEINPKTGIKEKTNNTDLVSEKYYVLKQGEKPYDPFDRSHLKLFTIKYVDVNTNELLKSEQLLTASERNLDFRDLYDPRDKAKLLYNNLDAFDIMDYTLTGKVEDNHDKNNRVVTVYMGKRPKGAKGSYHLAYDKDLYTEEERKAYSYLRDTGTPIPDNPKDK
# [11] = molecular target: Heat shock protein HSP 90-alpha (Homo sapiens, UniProt P07900); assay type: functional, organism-based
# [12] = luciferase reporter signal suppression in cells – H4 neuroglioma cells, luminescence, dose response (AID 1990); assay type: functional, cell-based
# [13] = Luminescence Cell-Based Dose Retest to Confirm Inhibitors of Cancer Stem Cells. [Related pubchem assays (depositor defined):AID2717, AID2721]; assay type: functional; conditions: Homo sapiens
# Fatty acid synthase [14] = molecular target: T6, Fatty acid synthase (Homo sapiens, UniProt P49327); assay: inhibition of human FAS-TE enzyme activity – biochemical, kinetic fluorescence intensity, dose response (AID 624326); assay type: functional;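 further: rate of fluorescence rise from hydrolysis of a fluorogenic O-methyl fluorescein ester substrate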
# T6 sequence (P49327 whole entry): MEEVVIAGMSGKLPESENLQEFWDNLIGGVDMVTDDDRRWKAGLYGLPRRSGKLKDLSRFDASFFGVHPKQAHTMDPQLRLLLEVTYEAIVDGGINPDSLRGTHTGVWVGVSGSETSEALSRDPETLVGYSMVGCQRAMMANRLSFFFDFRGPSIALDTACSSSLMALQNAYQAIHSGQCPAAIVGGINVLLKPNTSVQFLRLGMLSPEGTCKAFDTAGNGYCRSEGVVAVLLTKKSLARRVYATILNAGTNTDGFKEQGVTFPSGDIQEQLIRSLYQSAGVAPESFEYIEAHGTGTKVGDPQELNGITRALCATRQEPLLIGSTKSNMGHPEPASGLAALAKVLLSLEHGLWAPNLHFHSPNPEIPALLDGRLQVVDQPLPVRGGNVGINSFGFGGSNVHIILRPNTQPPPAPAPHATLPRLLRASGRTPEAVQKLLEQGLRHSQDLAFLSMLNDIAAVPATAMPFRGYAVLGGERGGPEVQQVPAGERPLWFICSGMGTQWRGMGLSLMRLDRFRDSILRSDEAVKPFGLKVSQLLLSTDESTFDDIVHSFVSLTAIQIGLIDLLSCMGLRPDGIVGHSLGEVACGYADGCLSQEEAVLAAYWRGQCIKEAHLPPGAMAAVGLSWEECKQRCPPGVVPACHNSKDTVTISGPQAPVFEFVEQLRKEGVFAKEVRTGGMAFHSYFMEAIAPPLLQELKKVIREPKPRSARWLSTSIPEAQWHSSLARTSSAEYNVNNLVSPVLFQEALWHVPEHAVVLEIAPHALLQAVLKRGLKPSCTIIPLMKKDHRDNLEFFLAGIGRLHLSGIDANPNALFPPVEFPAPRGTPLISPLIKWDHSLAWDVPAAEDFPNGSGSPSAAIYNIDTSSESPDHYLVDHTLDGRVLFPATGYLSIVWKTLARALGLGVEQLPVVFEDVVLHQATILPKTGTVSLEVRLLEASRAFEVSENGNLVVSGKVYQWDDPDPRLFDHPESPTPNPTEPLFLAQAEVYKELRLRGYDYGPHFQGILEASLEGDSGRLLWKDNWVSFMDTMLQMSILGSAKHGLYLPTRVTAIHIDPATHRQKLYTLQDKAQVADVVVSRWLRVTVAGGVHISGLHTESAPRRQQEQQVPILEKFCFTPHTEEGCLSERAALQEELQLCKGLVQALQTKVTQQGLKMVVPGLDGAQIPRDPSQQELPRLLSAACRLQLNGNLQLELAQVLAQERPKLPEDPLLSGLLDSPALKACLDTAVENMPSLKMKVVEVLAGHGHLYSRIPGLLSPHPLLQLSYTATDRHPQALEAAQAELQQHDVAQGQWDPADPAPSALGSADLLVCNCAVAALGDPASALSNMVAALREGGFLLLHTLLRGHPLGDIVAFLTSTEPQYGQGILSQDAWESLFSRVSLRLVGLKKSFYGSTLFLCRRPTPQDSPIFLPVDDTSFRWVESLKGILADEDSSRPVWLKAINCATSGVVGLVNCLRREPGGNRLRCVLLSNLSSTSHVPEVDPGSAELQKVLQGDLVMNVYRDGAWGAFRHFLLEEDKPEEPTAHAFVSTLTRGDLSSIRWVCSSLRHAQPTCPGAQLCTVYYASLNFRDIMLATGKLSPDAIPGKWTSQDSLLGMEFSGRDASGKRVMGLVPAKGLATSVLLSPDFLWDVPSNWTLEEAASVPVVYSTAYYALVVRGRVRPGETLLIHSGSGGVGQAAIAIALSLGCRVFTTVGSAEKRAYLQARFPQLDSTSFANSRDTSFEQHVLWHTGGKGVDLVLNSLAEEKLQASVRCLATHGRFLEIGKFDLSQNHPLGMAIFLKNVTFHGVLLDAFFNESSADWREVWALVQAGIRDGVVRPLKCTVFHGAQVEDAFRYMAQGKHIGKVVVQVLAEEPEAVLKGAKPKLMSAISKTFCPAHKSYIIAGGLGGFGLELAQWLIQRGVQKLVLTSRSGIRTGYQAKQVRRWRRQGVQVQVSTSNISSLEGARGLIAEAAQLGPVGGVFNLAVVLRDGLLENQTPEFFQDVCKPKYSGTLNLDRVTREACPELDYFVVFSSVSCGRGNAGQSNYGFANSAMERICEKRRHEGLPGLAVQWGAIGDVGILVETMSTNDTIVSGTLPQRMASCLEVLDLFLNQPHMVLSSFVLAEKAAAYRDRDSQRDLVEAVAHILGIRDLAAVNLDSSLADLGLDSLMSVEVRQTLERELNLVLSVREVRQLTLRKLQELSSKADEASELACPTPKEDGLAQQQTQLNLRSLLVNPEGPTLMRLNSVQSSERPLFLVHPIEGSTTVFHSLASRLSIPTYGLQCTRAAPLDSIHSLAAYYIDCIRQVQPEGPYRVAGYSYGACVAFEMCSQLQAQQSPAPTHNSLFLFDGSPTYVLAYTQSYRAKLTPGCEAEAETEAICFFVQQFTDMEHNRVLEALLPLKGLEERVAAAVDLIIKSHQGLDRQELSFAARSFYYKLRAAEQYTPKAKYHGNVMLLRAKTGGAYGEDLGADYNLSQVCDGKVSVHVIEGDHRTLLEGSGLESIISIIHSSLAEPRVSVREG
# Fatty acid synthase [15] = molecular target: T6, Fatty acid synthase; assay: inhibition of human FAS-TE enzyme activity – biochemical, endpoint fluorescence intensity, uHTS hits, dose response (AID 624327); assay type: functional;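 further: fluorescence from hydrolysis of an O-methyl fluorescein acyl ester substrate by the enzyme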
# [16] = viability of uninfected HEp-2 cells – cell-based, HTS, cytotoxicity control for RSV inhibitor project, dose response (AID 2410); assay type: functional; conditions: human respiratory syncytial virus
# Cytochrome P450 2C9 = Cytochrome P450 2C9 (Homo sapiens, UniProt P11712)
# Chain of Cytochrome P450 2C9 (P11712 whole entry): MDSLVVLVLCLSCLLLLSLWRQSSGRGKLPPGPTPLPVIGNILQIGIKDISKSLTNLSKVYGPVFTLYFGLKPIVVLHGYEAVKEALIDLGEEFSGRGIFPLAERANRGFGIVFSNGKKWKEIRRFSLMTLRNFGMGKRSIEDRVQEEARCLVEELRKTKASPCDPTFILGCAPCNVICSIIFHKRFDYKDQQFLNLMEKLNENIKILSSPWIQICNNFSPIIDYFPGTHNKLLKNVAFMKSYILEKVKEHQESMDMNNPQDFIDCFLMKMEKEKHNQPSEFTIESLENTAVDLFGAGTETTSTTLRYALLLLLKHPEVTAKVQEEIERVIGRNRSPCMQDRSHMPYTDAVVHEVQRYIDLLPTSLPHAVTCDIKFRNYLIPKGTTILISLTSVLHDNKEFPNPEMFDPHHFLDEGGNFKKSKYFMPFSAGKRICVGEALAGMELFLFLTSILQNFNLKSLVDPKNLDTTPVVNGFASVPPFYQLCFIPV
# [17] = P. falciparum Dd2 growth inhibitors, dose response, SYBR Green, cherry-picked samples (AID 1159567); assay type: functional, cell-based
compound,measurement,setting,value
O=C(CCC(=O)CCN1CCCCC1)CCN1CCCCC1,EC50,[1],32.6 µM (active)
same,EC50,[2],33.1 µM (active)
Cc1cccn2c(=O)c3cc(C(=O)NC4CCCCC4)c(=N)n(Cc4ccccc4)c3nc12,EC50,[3],1.63 µM (active)
same,EC50,[4],8.47 µM (active)
same,EC50,[5],> 60 µM (not active)
same,EC50,[6],25.9 µM (active)
COc1ccc(S(=O)(=O)C(C#N)c2nc3ccccc3nc2N2CCC(C)CC2)cc1 (stereo not drawn),EC50,[4],8.74 µM (active)
same,EC50,[6],6.4 µM (active)
O=C(c1c[nH]c(C(=O)C(Cl)(Cl)Cl)c1)c1ccccc1Cl,EC50,[1],24.9 µM (active)
same,AC50,[7],7.85 µM (active)
same,EC50,Protein RecA,6.27 µM (active)
same,EC50,[2],26.5 µM (active)
N#C/C(=C/c1ccc(CNS(=O)(=O)c2ccccc2)o1)C(=O)NCc1ccccc1,EC50,[4],> 300 µM (not active)
same,EC50,[6],> 300 µM (not active)
O=Nc1c(O)c2ccccc2c2ccccc12,EC50,Streptococcus,10.8 µM (active)
same,EC50,[8],1.68 µM (active)
same,EC50,[9],> 120 µM (not active)
same,AC50,INS1,7.86 µM (active)
same,EC50,[10],> 120 µM (not active)
same,EC50,Streptokinase A,7.11 µM (active)
same,AC50,[7],4.39 µM (active)
same,AC50,[11],1.03 µM (active)
same,EC50,Protein RecA,5.3 µM (active)
same,EC50,[12],8.1 µM (active)
CC(C)(C)c1cc(NCc2ccccn2)n2ncc(-c3ccccc3)c2n1,EC50,Streptococcus,13.8 µM (active)
same,EC50,[8],0.722 µM (active)
same,EC50,Streptokinase A,30 µM (active)
same,AC50,[11],1.63 µM (active)
same,AC50,[13],6.82 µM (active)
COc1cccc(-c2nc(Oc3cc(C)cc(C)c3)c3ccccc3n2)c1O,EC50,[1],13.7 µM (active)
same,EC50,[2],8.12 µM (active)
O=C1C=CC(=O)C2C1C1(Cl)C(Cl)=C(Cl)C2(Cl)C1(Cl)Cl (stereo not drawn),IC50,Fatty acid synthase [14],13.8 µM (active)
same,AC50,[11],7.83 µM (active)
same,IC50,Fatty acid synthase [15],14.8 µM (active)
COc1ccc(/N=C/c2cc3c(cc2O)OC(N)=C(C#N)C3c2ccccc2)cc1 (stereo not drawn),CC50,[16],8.02 µM (active)
same,EC50,[4],> 300 µM (not active)
same,EC50,[6],> 300 µM (not active)
COc1cc(/C=N/O)cc(Br)c1OCc1cccc(Cl)c1,AC50,Cytochrome P450 2C9,inconclusive
same,AC50,[11],7.99 µM (active)
same,AC50,[13],5.56 µM (active)
COc1ccc2c3c([nH]c2c1)[C@@H](CO)N(Cc1nccs1)CC31CCN(Cc2nccs2)CC1,AC50,[17],4.94 µM (active)
C[C@H](CO)N1C[C@H](C)[C@H](CN(C)S(=O)(=O)c2cccs2)Oc2ccc(NC(=O)Cc3cn(C)c4ccccc34)cc2C1=O,AC50,[17],5.02 µM (active)
C/C=C/c1ccc2n(c1=O)C[C@@H]1[C@@H](CO)[C@H](C(=O)N3CCC(Cc4ccccc4)CC3)N(CCC)[C@H]21.C/C=C\c1ccc2n(c1=O)C[C@@H]1[C@@H](CO)[C@H](C(=O)N3CCC(Cc4ccccc4)CC3)N(CCC)[C@H]21,AC50,[17],4.32 µM (active)
